Test results from US20140357706A1, “Stearate Compounds” (THE UAB RESEARCH FOUNDATION, priority 2011, published 2014).

How the values were obtained:
[1] = system: MDA-MB-435 human breast cancer cells; test: MDA-MB-435 lung metastasis model, experiment 2 (diet started with chemotherapy after surgery); type: in vivo, mice
Protocol: 3-4 week old female athymic mice were purchased from Harlan Sprague Dawley, Inc. (Indianapolis, Ind.) and were maintained in microisolater cages in pathogen-free facilities. […] The diets were prepared by Harlan-Teklad (Madison, Wis.). The animals were fed ad libitum and the amount of food consumed was recorded. Mice were anesthetized with 3% isoflurane in 2.5% O2 and weighed weekly. All in vivo procedures were approved by the Institutional Animal Care and Use Committee (IACUC), University of Alabama at Birmingham (UAB).
MDA-MB-435 human breast cancer cells (obtained from Dr. Dan Welch; UAB) were grown and maintained in DMEM:F12 supplemented with 5% FBS, 2 mM glutamine, 1 mM sodium pyruvate, 0.2× non-essential amino acids and 1% penicillin/streptomycin (5% CO2). Cells were grown to 80-90% confluence prior to preparation for injection. To detach cells from the plates, cells were washed with PBS and then treated with 3 mM versene. […]
Lungs were placed under the dissecting microscope (Fisher Scientific, Hanover Park, Ill.) for measurement of metastatic tumor size. Tumor size is expressed as an average of the longest and shortest diameter. The tumors were split into three groups according to their sizes (<0.1 cm, small tumor; 0.1-0.2 cm, medium tumor; >0.2 cm, large tumor), and the number of tumors per mouse was counted separately.

[2] = system: lung metastatic tumors; test: Immunohistochemistry of lung metastatic tumors (CD31, Ki67, caspase-3), experiment 2; type: in vivo, mice
Protocol: Paraffin sections were prepared as described previously (21). 5 μm thick sections were cut from the formalin fixed, paraffin embedded tissue blocks and floated onto charged glass slides (Super-Frost Plus, Fisher Scientific, Pittsburgh, Pa.) and dried overnight at 60° C. A hemotoxylin and eosin stained section was obtained from each tissue block. All sections for immunohistochemistry were deparaffinized and hydrated using graded concentrations of ethanol to deionized water.
CD31 immunostaining was done as described previously^(21). Briefly, the tissue sections were subjected to pretreatment with 0.5 M tris buffer (pH 10). All sections were washed gently in deionized water, then transferred in to 0.05 M Tris-based solution in 0.15 M NaCl with 0.1% v/v Triton-X-100, pH 7.6 (TBST). Endogenous peroxidase was blocked with 3% hydrogen peroxide for 10 min. To reduce further nonspecific background staining, slides were incubated with avidin (Jackson ImmunoResearch, West Grove, Pa.) and biotin blocking solutions (Sigma, to St. Louis, Mo.) for 15 min each, and 3% normal goat serum (Sigma, St. Louis, Mo.) for 20 min. All slides were then incubated at 4° C. overnight with rabbit polyclonal antibody against CD31 (1:200 dilution) (Abeam, Cambridge, Mass.). […]
Bioquant® Image Analysis software (Rtm Biometrics, Nashville, Tenn.) was used to evaluate the immunostaining. […] The numbers of positive and negative cells in these hot spots were then counted and averaged at 5 magnification X40. The percentage of cells stained with Ki67 or caspase-3 was subsequently calculated for comparison. For CD31 immunostaining, the MVD was measured based on Weidner's method (37). […] The number of microvessels in these hot spots was counted at magnification X40, and the density was then calculated for comparison. Each positive endothelial cell cluster of immunoreactivity was counted as an individual vessel in addition to the morphologically identifiable vessels with a lumen.

Compound: CC(=O)O[C@H]1C(=O)[C@@]2(C)[C@H]([C@H](OC(=O)c3ccccc3)[C@]3(O)C[C@H](OC(=O)[C@H](O)[C@@H](NC(=O)c4ccccc4)c4ccccc4)C(C)=C1C3(C)C)[C@]1(OC(C)=O)CO[C@@H]1C[C@@H]2O [paclitaxel]
- Incidence of lung metastases ([1]; PTX vs same diet without PTX, p<0.01, about 20 mg/kg i.p.): significantly lower
- Number of lung metastases ([1]; two-way ANOVA, PTX VS. no PTX, diet VS. control diet): significantly reduced
- Caspase-3 positive cells ([2]; compared to control diet group): significantly increased
- Percentage of Ki67 positive cells (proliferation) ([2]; two-way ANOVA): significantly inhibited
- Microvessel density (MVD), CD31 ([2]; two-way ANOVA, PTX VS. no PTX, diet VS. control diet group): decreased the MVD significantly
